The text below walks through data of PubChem BioAssay AID1117324 (Cheminformatics & Chemogenomics Research Group (CCRG), …, 2015).

Usually IC50 stands for the concentration needed to halve the response being measured.

Calls of active or inactive are those of the source. No rule for the calls is given here. Where a SMILES comes first, the peptide text is derived from it. Bridges are numbered along the chain shown (N, C = ends). [ ]: non-standard residue; d: D form. hArg = N=C(N)NCCCC[C@H](N)C(=O)O; Mpa = O=C(O)CCS

The subject of the test is VEGF-stimulated ADSC/ECFC co-culture, nuclear area imaging. Description: nuclear area loss in endothelial-stromal co-culture, dose response, cell-based, VEGF stimulation, IC50 (AID 1117324).
For `CN1CCN(CCCN2c3ccccc3Sc3ccc(C(F)(F)F)cc32)CC1`, the IC50 was > 10 µM (inactive).
The figure for `Clc1cc(Cl)c(OCC#CI)cc1Cl` is > 10 µM (inactive).
As to `Cc1cc(=O)c2c(O)c3c(O)cc(=O)c4c3c3c(cc(O)c1c23)C(C)(C)C=4O`, the IC50 was 2.07 µM.
`CCc1oc2ccccc2c1C(=O)c1cc(Br)c(O)c(Br)c1`: the IC50 was > 10 µM (inactive).
Then `CCCn1cnc2c1c(=O)n(CCCCC(C)=O)c(=O)n2C`, with > 10 µM (inactive); and `CC[C@@]1(O)C(=O)OCc2c1cc1n(c2=O)Cc2c-1nc1ccccc1c2/C=N/OC(C)(C)C`, with 0.799 µM.
The figure for `NC(=O)C1(N2CCCCC2)CCN(CCCN2c3ccccc3CCc3ccc(Cl)cc32)CC1` is > 10 µM (inactive); for `COc1cc(C=C2CCC/C(=C\c3ccc(O)c(OC)c3)C2=O)ccc1O` it is 6.98 µM (inactive); for `C[C@H]1O[C@@H](O[C@H]2CC[C@@]3(C)[C@H](CC[C@@H]4[C@@H]3C[C@@H](O)[C@]3(C)[C@@H](C5=CC(=O)OC5)CC[C@]43O)C2)C[C@H](O)[C@@H]1O[C@H]1C[C@H](O)[C@H](O[C@H]2C[C@H](O)[C@H](O[C@@H]3O[C@H](CO)[C@@H](O)[C@H](O)[C@H]3O)[C@@H](C)O2)[C@@H](C)O1` it is 0.299 µM.
Then `CO[C@@H]1[C@@H](OC)[C@H](C)[C@@](O)(CC(=O)O)O[C@H]1[C@H](C)[C@H]1O[C@@]2(CC[C@@](C)([C@H]3CC[C@@](C)([C@@H]4O[C@@H]([C@H]5O[C@](C)(O)[C@H](C)C[C@@H]5C)C[C@@H]4OC4C[C@H](OC)[C@@H](OC)[C@H](C)O4)O3)O2)C[C@H](O)[C@H]1C` (some centres undefined), with 2.57 µM; and `COc1cc([C@@H]2c3cc4c(cc3[C@@H](O[C@@H]3O[C@@H]5CO[C@@H](C)O[C@@H]5[C@H](O)[C@@H]3O)[C@H]3COC(=O)[C@H]23)OCO4)cc(OC)c1O`, with 0.967 µM; and `Oc1ccc(O)cc1`, with > 10 µM (inactive).
As for `CCCCc1oc2ccc(NS(C)(=O)=O)cc2c1C(=O)c1ccc(OCCCN(CCCC)CCCC)cc1`, the IC50 is 7.56 µM (inactive).
In the case of `Cn1cc(S(C)=O)c(=O)c2ccc(F)cc21` (centres undefined), the IC50 is > 10 µM (inactive).
Regarding `CO[C@@]12[C@H](COC(N)=O)C3=C(C(=O)C(C)=C(N)C3=O)N1C[C@@H]1N[C@@H]12`, the IC50 was 5.96 µM (inactive).
In the case of `O=C(CBr)Nc1ccc(Cl)cc1C(=O)c1ccccc1F`, the IC50 was > 10 µM (inactive).
Take `CCCCCCCCCCCCCCNCCO`: the IC50 is 9.19 µM (inactive).
The figure for `COC(=O)Nc1nc2ccc(Sc3ccccc3)cc2[nH]1` is > 10 µM (inactive); for `O=C(c1ccc(F)cc1)C1CCN(CCn2c(=O)[nH]c3ccccc3c2=O)CC1` it is > 10 µM (inactive).
Take `CC(=O)Oc1ccccc1C(=O)Nc1ncc([N+](=O)[O-])s1`: the IC50 is > 10 µM (inactive).
For the compound `CC(=O)[O][Hg][c]1ccccc1`, the IC50 was 0.883 µM.
Then `O=c1c(-c2ccc(O)cc2)coc2cc(O)cc(O)c12`, with > 10 µM (inactive).
The figure for `CCCCCCCC/C=C\CCCCCCCCN` is 9.13 µM (inactive); for `Clc1ccc(CSC(Cn2ccnc2)c2ccc(Cl)cc2Cl)cc1` (centres undefined) it is 8.76 µM (inactive).
The figure for `CCCCCCCCOc1ccccc1C(=O)Nc1ccc(C(=O)OCC[N+](C)(CC)CC)cc1` is 8.47 µM (inactive); for `CCN(CC)CCOc1ccc(/C(=C(\Cl)c2ccccc2)c2ccccc2)cc1` it is > 10 µM (inactive); for `CC(C(O)c1ccccc1)N(C)C/C=C/c1ccccc1` (centres undefined) it is > 10 µM (inactive).
Take `C[n+]1cc2c3c(ccc2c2ccc4cc5c(cc4c21)OCO5)OCO3`: the IC50 was 0.97 µM.
Consider `CCCCCCC[N+](CC)(CC)CCCCc1ccc(Cl)cc1`, for which the IC50 was > 10 µM (inactive).
`O=c1[nH]cc(F)c(=O)[nH]1`: the IC50 is > 10 µM (inactive).
As to `Cc1cc(O)c2c(O)c3c(O)cccc3cc2c1`, the IC50 was > 10 µM (inactive).
The figure for `Cc1cccc(Nc2cc(Cl)nc(SCC(=O)O)n2)c1C` is > 10 µM (inactive); for `CCCCN(CCCC)CCC(O)c1cc2c(Cl)cc(Cl)cc2c2cc(C(F)(F)F)ccc12` (centres undefined) it is > 10 µM (inactive).
Regarding `O=C(Nc1ccc(Cl)cc1)Nc1ccc(Cl)c(Cl)c1`, the IC50 is > 10 µM (inactive).
Then `Cc1ccc(Nc2nccc(N(C)c3ccc4c(C)n(C)nc4c3)n2)cc1S(N)(=O)=O`, with > 10 µM (inactive); and `O=C(OCCO)c1ccccc1O`, with > 10 µM (inactive); and `CCN(CC)C(=O)/C(C#N)=C/c1cc(O)c(O)c([N+](=O)[O-])c1`, with > 10 µM (inactive).
Then `CCOC(=O)C=C(C)C=CC[C@@H](C)CCCC(C)C`, with > 10 µM (inactive).
As for `Cc1onc(-c2c(Cl)cccc2Cl)c1C(=O)Cl`, the IC50 was > 10 µM (inactive).
Then `CCCOc1ccc2nc(NC(=O)OC)[nH]c2c1`, with > 10 µM (inactive); and `O=[N+]([O-])C(Br)(CO)CO`, with > 10 µM (inactive).
As for `COC(=O)C1=C(C)NC(C)=C(C(=O)OC(C)(C)CN(C)CCC(c2ccccc2)c2ccccc2)C1c1cccc([N+](=O)[O-])c1` (centres undefined), the IC50 was > 10 µM (inactive).
The figure for `COc1cc(S(N)(=O)=O)cc(C(=O)O)c1OC` is > 10 µM (inactive); for `COCCOC(=O)C1=C(C)NC(C)=C(C(=O)OC/C=C/c2ccccc2)C1c1cccc([N+](=O)[O-])c1` (centres undefined) it is > 10 µM (inactive).
The figure for `CCCCC1C(=O)N(c2ccccc2)N(c2ccc(O)cc2)C1=O` (centres undefined) is 8.83 µM (inactive); for `CN(C)c1ccc(C(=C2C=CC(=[N+](C)C)C=C2)c2ccc(N(C)C)cc2)cc1` it is 1.83 µM; for `COC(=O)c1ccccc1C(=O)OC` it is > 10 µM (inactive).
Consider `C=CC(C)(O)CCC=C(C)CCC=C(C)C` (centres undefined), for which the IC50 was > 10 µM (inactive).
Then `Nc1nc(F)nc2c1ncn2[C@@H]1O[C@H](CO)[C@@H](O)[C@@H]1O`, with > 10 µM (inactive); and `CSc1ccc2c(c1)N(CCC1CCCCN1C)c1ccccc1S2` (centres undefined), with 9.24 µM (inactive).
The figure for `O=C(OCc1ccccc1)c1cccnc1` is > 10 µM (inactive); for `[O-][n+]1ccccc1SSc1cccc[n+]1[O-]` it is 1.79 µM; for `C/C(=C(/OCCOc1ccc(Cl)cc1)c1ccc(Cl)cc1Cl)n1ccnc1` it is 9.42 µM (inactive).
Then `CC(C)OC(=O)OCOP(=O)(CO[C@H](C)Cn1cnc2c(N)ncnc21)OCOC(=O)OC(C)C`, with > 10 µM (inactive); and `CCCCCCCCOC(=O)c1ccccc1C(=O)OCCCCCCCC`, with > 10 µM (inactive).
Take `CCCCCCCCCCC[C@@H](C[C@@H]1OC(=O)[C@H]1CCCCCC)OC(=O)[C@H](CC(C)C)NC=O`: the IC50 was > 10 µM (inactive).
Then `NC(=O)[C@@H]1CSSCCC(=O)N[C@@H](CCCCN=C(N)N)C(=O)NCC(=O)N[C@@H](CC(=O)O)C(=O)N[C@@H](Cc2c[nH]c3ccccc23)C(=O)N2CCC[C@H]2C(=O)N1` ([Mpa][hArg]GDWPC-NH2; disulfide 1-7), with > 10 µM (inactive).
Consider `CC12CCC(CC1)C(C)(C)O2`, for which the IC50 is > 10 µM (inactive).
Then `Cn1ccc2cc3c(cc21)CCN3C(=O)Nc1cccnc1`, with > 10 µM (inactive).
